Measured values as given in ChEMBL document CHEMBL1770053, “Design of novel and potent cPLA2α inhibitors containing an α-methyl-2-ketothiazole as a metabolically stable serine trap” (Bioorg Med Chem Lett, 2011).

How the values were obtained:
[1] = Inhibition of recombinant cytosolic PLA2alpha assessed as inhibition of cleavage of soluble fluorogenic substrate
[2] = Inhibition of cytosolic PLA2alpha in human differentiated HL60 cells assessed as inhibition of A23187-induced [3H]-arachidonate release; format: cell-based; conditions: HL-60
[3] = tested on: Hepatocyte; experiment: Intrinsic clearance in rat hepatocytes; format: ADME, cell-based, Liver
[4] = Volume of distribution at steady state in rat at 2 mg/kg, iv; format: ADME, organism-based; parameters: dose 2 mg/kg, route intravenous; conditions: in vivo, read-out: Vdss
[5] = Clearance in rat at 2 mg/kg, iv; format: ADME, organism-based; parameters: dose 2 mg/kg, route intravenous; conditions: in vivo
[6] = Half life in rat plasma at 2 mg/kg, iv; format: ADME, organism-based; parameters: dose 2 mg/kg, route intravenous

| IC50 [1] [µM] | IC50 [2] [µM] | CL [3] [µL/min] | Vd [4] [L/kg] | clearance [5] [mL/min/kg] | half-life [6] [h] | Structure (SMILES) |
| --- | --- | --- | --- | --- | --- | --- |
| 0.3 | 1.1 | 11 |  |  |  | Cc1nc(C(=O)COc2ccc(SCCCCCc3ccccc3)cc2)sc1C(=O)O |
| > 1 |  |  |  |  |  | Cc1nc(C(=O)[C@H](C)Oc2ccc(SCCCCCc3ccccc3)cc2)sc1CCCC(=O)O |
| > 10 | > 10 |  |  |  |  | O=C(O)COc1ccc2nc(C(=O)COc3ccc(SCCCCCc4ccccc4)cc3)[nH]c2c1 |
| 0.08 | 0.5 |  | 0.4 | 71 | 0.2 | Cc1nc(C(=O)COc2ccc(SCCCCCc3ccccc3)cc2)sc1CCCC(=O)O |
| 1 |  |  |  |  |  | O=C(COc1ccc(SCCCCCc2ccccc2)cc1)c1nc2ccccc2s1 |
| 0.3 | 0.2 | 41 |  |  |  | CCCCCCCCCCS(=O)(=O)c1ccc(OCC(=O)c2nc(C)c(CCCC(=O)O)s2)cc1 |
| 4.4 | 5.6 |  |  |  |  | Cc1nc(C(=O)C(Oc2ccc(SCCCCCc3ccccc3)cc2)C(C)C)sc1CCCC(=O)O (stereo unspecified) |
| 0.24 | 1.2 | 20 |  |  |  | Cc1nc(C(=O)COc2ccc(OCCCCCc3ccccc3)cc2)sc1CCCC(=O)O |
| 1 | > 10 |  |  |  |  | O=C(COc1ccc(SCCCCCc2ccccc2)cc1)c1nccs1 |
| 0.2 |  | 8 |  |  |  | Cc1nc(C(=O)[C@@H](C)Oc2ccc(SCCCCCc3ccccc3)cc2)sc1CCCC(=O)O |
| 2 | 6 |  |  |  |  | O=C(O)CCCc1csc(C(=O)COc2ccc(OCCCCCc3ccccc3)cc2)n1 |
| 6.7 | > 10 |  |  |  |  | Cc1nc(C(=O)C(C)(C)Oc2ccc(SCCCCCc3ccccc3)cc2)sc1CCCC(=O)O |
| 0.7 | 2 | 10 | 0.35 | 10.5 | 1.25 | Cc1nc(C(=O)C(C)Oc2ccc(OCCCCCc3ccccc3)cc2)sc1CCCC(=O)O (stereo unspecified) |
| > 10 |  |  |  |  |  | O=C(COc1ccc(SCCCCCc2ccccc2)cc1)c1ncc[nH]1 |
| 0.14 | 3.6 | 35 |  | > 200 | < 0.2 | O=C(O)c1ccc2oc(C(=O)COc3ccc(SCCCCCc4ccccc4)cc3)nc2c1 |
| 7.9 |  |  |  |  |  | CCC(Oc1ccc(SCc2ccc(Cl)cc2)cc1)C(=O)c1nc(C)c(CCCC(=O)O)s1 (stereo unspecified) |
| 2.7 | 3.7 |  |  |  |  | O=C(O)c1ccc2nc(C(=O)COc3ccc(SCCCCCc4ccccc4)cc3)[nH]c2c1 |
| 0.5 | 0.5 |  |  |  |  | Cc1nc(C(=O)COc2ccc(SCCCCCc3ccccc3)cc2)sc1CCC(=O)O |
| 0.08 | 1.5 |  |  |  |  | O=C(COc1ccc(SCCCCCc2ccccc2)cc1)COc1ccc(C(=O)O)cc1 |
| > 10 |  |  |  |  |  | Cn1ccnc1C(=O)COc1ccc(SCCCCCc2ccccc2)cc1 |
| > 10 |  |  |  |  |  | COc1ccc2nc(C(=O)COc3ccc(SCCCCCc4ccccc4)cc3)sc2c1 |
| 1.5 | 1.5 |  | 0.55 | 10.5 | 1.15 | Cc1nc(C(=O)C(C)Oc2ccc(SCc3ccc(Cl)cc3)cc2)sc1CCCC(=O)O (stereo unspecified) |
| 3 | 2 |  |  |  |  | Cc1nc(C(=O)COc2ccc(SCc3ccccc3)cc2)sc1CCCC(=O)O |
| 4.3 | 3 |  |  |  |  | Cc1nc(C(=O)COc2ccc(SCCCCCc3ccccc3)cc2)sc1/C=C/C(=O)O |
| 0.08 | 1.6 | 28 |  |  |  | O=C(O)c1ccc2nc(C(=O)COc3ccc(SCCCCCc4ccccc4)cc3)sc2c1 |
| 0.04 | 0.23 |  |  |  |  | CCCCCCCCCCSc1ccc(OCC(=O)c2nc(C)c(CCCC(=O)O)s2)cc1 |
| 0.28 | 1.3 | 31 |  |  |  | Cc1nc(C(=O)COc2ccc(SCCCCCc3ccccc3)cc2)sc1CCO |
| 0.2 | 0.7 |  |  |  |  | Cc1nc(C(=O)C(C)Oc2ccc(SCCCCCc3ccccc3)cc2)sc1CCCC(=O)O (stereo unspecified) |
| > 10 |  |  |  |  |  | Cn1c(C(=O)COc2ccc(SCCCCCc3ccccc3)cc2)nc2ccccc21 |
| 3.6 | 3.2 |  |  |  |  | Cc1nc(C(=O)C(Oc2ccc(SCCCCCc3ccccc3)cc2)c2ccccc2)sc1CCCC(=O)O (stereo unspecified) |
